Assay results reported in PMC6556873, “Rapid Covalent-Probe Discovery by Electrophile-Fragment Screening” (Journal of the American Chemical Society, 2019).
Read-outs that look alike come from different tables or passages of the source.

Key:
BSA = target: T1, BSA (Bos taurus, UniProt P02769); design: Intact protein LC/MS covalent labelling, fragments in pools of five, 200 uM each, 4 °C; conditions: 24 h, 4 °C, pool of five; 200 µM; covalent
T1 construct: gene ALB

NNMT (hNNMT) = target: T2, NNMT (hNNMT) (Homo sapiens, UniProt P40261); design: Intact protein LC/MS covalent labelling, fragments in pools of five, 200 uM each, 4 °C; conditions: 24 h, 4 °C, pool of five; 200 µM; covalent
T2 construct: wild type, N-terminal His6 tag kept (no cleavage described), E. coli, construct 31248 Da
T2 sequence (P40261 1-264): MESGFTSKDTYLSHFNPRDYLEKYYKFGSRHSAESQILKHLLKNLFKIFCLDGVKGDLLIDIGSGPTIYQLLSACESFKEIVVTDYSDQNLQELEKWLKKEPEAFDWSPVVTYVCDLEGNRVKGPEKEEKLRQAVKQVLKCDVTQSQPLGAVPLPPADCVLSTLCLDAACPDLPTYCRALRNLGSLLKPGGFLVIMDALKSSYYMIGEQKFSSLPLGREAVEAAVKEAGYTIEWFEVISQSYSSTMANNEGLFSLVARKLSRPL

NUDT7 = target: T3, NUDT7 (Homo sapiens, UniProt P0C024); design: Intact protein LC/MS covalent labelling, fragments in pools of five, 200 uM each, 4 °C; conditions: 24 h, 4 °C, pool of five; 200 µM; covalent
T3 construct: residues 14-235, E. coli, pNIC28-Bsa4, N-terminal His6 tag removed by TEV, construct 26672 Da
T3 sequence (P0C024 14-235): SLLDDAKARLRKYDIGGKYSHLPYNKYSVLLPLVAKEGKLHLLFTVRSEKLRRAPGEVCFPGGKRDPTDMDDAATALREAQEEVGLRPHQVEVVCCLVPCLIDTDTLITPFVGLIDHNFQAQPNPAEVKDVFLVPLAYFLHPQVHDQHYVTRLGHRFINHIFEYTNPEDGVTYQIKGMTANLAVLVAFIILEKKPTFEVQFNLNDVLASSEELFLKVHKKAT

OTUB2 (OTUB2A) = target: T4, OTUB2 (OTUB2A) (Homo sapiens, UniProt Q96DC9); design: Intact protein LC/MS covalent labelling, fragments in pools of five, 200 uM each, 4 °C; conditions: 24 h, 4 °C, pool of five; 200 µM; covalent
T4 construct: full length residues 1-234, E. coli BL21(DE3)-R3, His tag removed by TEV, construct 27312 Da
T4 sequence (Q96DC9 1-234): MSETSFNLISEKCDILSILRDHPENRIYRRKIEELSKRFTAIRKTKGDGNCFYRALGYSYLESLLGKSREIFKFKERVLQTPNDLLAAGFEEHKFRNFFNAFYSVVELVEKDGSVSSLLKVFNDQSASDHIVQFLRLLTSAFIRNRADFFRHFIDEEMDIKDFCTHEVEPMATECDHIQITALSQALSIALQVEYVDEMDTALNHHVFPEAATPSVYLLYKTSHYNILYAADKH

PCAF = target: T5, PCAF (Homo sapiens, UniProt Q92831); design: Intact protein LC/MS covalent labelling, fragments in pools of five, 200 uM each, 4 °C; conditions: 24 h, 4 °C, pool of five; 200 µM; covalent
T5 construct: gene KAT2B
T5 sequence (Q92831 whole entry, the tested form may be a part): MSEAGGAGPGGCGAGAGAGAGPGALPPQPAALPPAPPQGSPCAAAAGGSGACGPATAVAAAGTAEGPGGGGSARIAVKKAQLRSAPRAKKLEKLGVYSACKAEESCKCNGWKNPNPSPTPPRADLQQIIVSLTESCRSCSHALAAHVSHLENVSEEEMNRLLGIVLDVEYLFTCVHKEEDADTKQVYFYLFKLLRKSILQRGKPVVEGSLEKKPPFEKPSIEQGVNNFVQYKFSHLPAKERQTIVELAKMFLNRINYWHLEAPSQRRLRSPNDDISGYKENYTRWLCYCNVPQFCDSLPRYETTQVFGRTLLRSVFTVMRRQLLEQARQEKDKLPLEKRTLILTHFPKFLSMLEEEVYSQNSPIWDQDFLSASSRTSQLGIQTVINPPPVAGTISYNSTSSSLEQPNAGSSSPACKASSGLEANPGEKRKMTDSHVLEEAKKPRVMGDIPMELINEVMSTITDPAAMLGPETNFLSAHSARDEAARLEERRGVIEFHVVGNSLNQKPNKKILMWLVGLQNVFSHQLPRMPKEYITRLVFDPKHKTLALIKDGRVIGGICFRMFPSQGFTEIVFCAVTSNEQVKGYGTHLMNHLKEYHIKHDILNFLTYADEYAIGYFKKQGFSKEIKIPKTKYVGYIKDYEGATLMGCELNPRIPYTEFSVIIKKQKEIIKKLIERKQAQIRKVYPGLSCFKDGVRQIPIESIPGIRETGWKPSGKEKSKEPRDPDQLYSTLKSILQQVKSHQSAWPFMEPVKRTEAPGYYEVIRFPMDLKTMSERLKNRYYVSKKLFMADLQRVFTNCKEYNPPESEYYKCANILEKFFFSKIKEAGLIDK

in vitro [1] = assay: in vitro; design: species or system CCD841, HEK293; conditions: human, hb2 cells, read-out: HB-2 Cells Viability (%)
in vitro [2] = assay: in vitro; design: species or system HB2, HEK293; conditions: human, ccd841 cells
in vitro [3] = assay: in vitro; design: species or system HB2, CCD841; conditions: human, hek293 cells

T1 sequence (P02769 whole entry, the tested form may be a part): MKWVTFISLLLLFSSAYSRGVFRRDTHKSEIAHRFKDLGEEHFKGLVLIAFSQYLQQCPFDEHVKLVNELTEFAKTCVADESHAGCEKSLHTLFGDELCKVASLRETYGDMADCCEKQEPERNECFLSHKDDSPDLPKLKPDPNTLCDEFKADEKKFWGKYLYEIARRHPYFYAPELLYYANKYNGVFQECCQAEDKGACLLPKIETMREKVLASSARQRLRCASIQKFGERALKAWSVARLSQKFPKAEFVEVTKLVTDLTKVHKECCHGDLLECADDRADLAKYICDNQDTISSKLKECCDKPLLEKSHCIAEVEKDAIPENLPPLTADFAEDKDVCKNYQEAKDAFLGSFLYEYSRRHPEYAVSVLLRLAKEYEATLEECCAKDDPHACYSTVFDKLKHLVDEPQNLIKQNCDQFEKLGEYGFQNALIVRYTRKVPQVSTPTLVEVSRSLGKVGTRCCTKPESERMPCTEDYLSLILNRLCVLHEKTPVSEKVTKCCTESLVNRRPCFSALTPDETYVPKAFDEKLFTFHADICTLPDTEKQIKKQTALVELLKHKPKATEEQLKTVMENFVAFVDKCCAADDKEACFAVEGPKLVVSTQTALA

Row | Compound | BSA (BSA) | NNMT (NNMT (hNNMT)) | NUDT7 (NUDT7) | OTUB2 (OTUB2 (OTUB2A)) | PCAF (PCAF) | viability at 48 h, 10 µM (in vitro [1]) | viability at 48 h, 10 µM (in vitro [2]) | viability at 48 h, 10 µM (in vitro [3])
1 | O=C(CCl)NC(=O)NCC1COc2ccccc2O1 (stereo not drawn) [PCM-0102092] | 0 | 0 | 0 | 0 | 0 | 49% | 33.4% | 7.6%
2 | Cc1csc(CC(=O)NNC(=O)CCl)n1.Cl [PCM-0102095] | 0 | 0 | 0 | 0.51 | 0 | 93.3% | 79% | 81.9%
3 | O=C(CCl)NC(=O)NC1CCS(=O)(=O)C1 (stereo not drawn) [PCM-0102100] | 0 | 0 | 0 | 0.09 | 0 | 101% | 106% | 99.5%
4 | O=C(CCl)NC12CC3CC(CC(C3)C1)C2 [PCM-0102118] | 0 | 0.23 | 0 | 0 | 0 | 83% | 76.1% | 71.1%
5 | CC(NC(=O)CCl)c1ccccc1 (stereo not drawn) [PCM-0102128] | 0 | 0 | 0.13 | 0.42 | 0 | 84.4% | 85.5% | 84.3%
6 | O=C(CCl)NC1CCS(=O)(=O)C1 (stereo not drawn) [PCM-0102138] | 0 | 0 | 0 | 0 | 0 | 92.6% | 84.2% | 113%
7 | C=CC(=O)Nc1ccc(N2CCCC2=O)cc1 [PCM-0102145] | 0 | 0.14 | 0 | 0 | 0 | 101% | 125% | 91.4%
8 | CCc1nnc(NC(=O)CCl)s1 [PCM-0102166] | 0 | 0.42 | 0.21 | 0 | 0 | 94.5% | 92.5% | 95.8%
9 | Cl.O=C(CCl)N1CCN(Cc2ccc(Br)s2)CC1 [PCM-0102169] | 0 | 0 | 0 | 0 | 0 | 8.8% | 33% | 8.6%
10 | O=C(CCl)Nc1c(F)cc(F)cc1Br [PCM-0102189] | 0 | 0.11 | 0.1 | 0 | 0 | 79.5% | 59.6% | 72.4%
11 | CC(NC(=O)CCl)c1ccc(F)cc1 (stereo not drawn) [PCM-0102228] | 0 | 0 | 0.07 | 0.2 | 0 | 84.6% | 83.2% | 63.8%
12 | O=C(CCl)N1CCN(S(=O)(=O)c2cccs2)CC1 [PCM-0102241] | 0 | 0 | 0.12 | 0 | 0 | 8.9% | 49.1% | 8.9%
13 | O=C(CCl)N1CCN(C(=O)c2ccco2)CC1 [PCM-0102248] | 0.06 | 0.1 | 0.09 | 0 | 0 | 78.1% | 73.2% | 35.6%
14 | O=C(CCl)NC1CCCC1 [PCM-0102250] | 0 | 0 | 0 | 0 | 0 | 71.9% | 69.1% | 58.7%
15 | N#Cc1ccc(CNC(=O)CCl)cc1 [PCM-0102946] |  | 0.23 | 0 | 0.35 | 0 | 85% | 74.8% | 88.1%
16 | O=C(CCl)N1CCN(C(=O)C2CC2)CC1 [PCM-0102970] |  | 0 | 0.07 | 0 | 0 | 83.8% | 72.5% | 66.6%

More lines, main results first:

Row | BSA (BSA) | NNMT (NNMT (hNNMT)) | NUDT7 (NUDT7) | OTUB2 (OTUB2 (OTUB2A)) | PCAF (PCAF) | Compound | viability at 48 h, 10 µM (in vitro [1]) | viability at 48 h, 10 µM (in vitro [2]) | viability at 48 h, 10 µM (in vitro [3])
17 | 0 | 0 | 0 | 0 | 0 | CNC(=O)c1cccc(NC(=O)CCl)c1 [PCM-0102113] | 25.2% | 55% | 1.7%
18 | 0 | 0.57 | 0.09 | 0 | 0 | Cc1ccc(NC(=O)NC(=O)CCl)cc1C [PCM-0102119] | 48.8% | 63.5% | 63.3%
19 | 0 | 0 | 0 | 0 | 0 | O=C(CCl)Nc1ccccc1N1CCCC1 [PCM-0102135] | 98.5% | 95% | 91.3%
20 | 0 | 0.27 | 0.1 | 0.43 | 0 | N#CCc1ccc(NC(=O)CCl)cc1 [PCM-0102148] | 11.8% | 32.2% | 2.1%
21 | 0 | 0 | 0 | 0.62 | 0 | O=C(CCl)NCc1ccccc1F [PCM-0102149] | 86.4% | 63.7% | 71.3%
22 | 0 | 0 | 0 | 0.2 | 0 | O=C(CCl)Nc1ccccc1Cl [PCM-0102152] | 75.4% | 78.5% | 76.1%
23 | 0 | 0.25 | 0 | 0.52 | 0 | COc1ccc(NC(=O)CCl)cc1 [PCM-0102156] | 24.7% | 42.7% | 2.4%
24 | 0 | 0 | 0 | 0.51 | 0 | O=C(CCl)Nc1ccccc1F [PCM-0102158] | 50% | 59% | 34.2%
25 | 0 | 0.12 | 0 | 0 | 0 | O=C(CCl)Nc1ccccc1C(F)(F)F [PCM-0102170] | 96.7% | 99.1% | 72.6%
26 | 0 | 0.23 | 0.12 | 0.47 | 0 | O=C(CCl)Nc1cccc(N2CCCC2=O)c1 [PCM-0102179] | 20.8% | 52.4% | 1.8%
27 | 0 | 0 | 0.28 | 0.37 | 0 | O=C(CCl)Nc1cccc(Cl)c1 [PCM-0102198] | 9% | 41.1% | 1.8%
28 | 0 | 0.3 | 0.08 | 0.39 | 0 | Cc1cc(Cl)ccc1NC(=O)CCl [PCM-0102214] | 44.6% | 67.9% | 5.5%
